Measured values: publication PMC7994357, “Gene Expression, Biochemical Characterization of a sn-1, 3 Extracellular Lipase From Aspergillus niger GZUF36 and Its Model-Structure Analysis” (Frontiers in Microbiology, 2021)

Target: T1, PEXANL1 (Aspergillus niger, UniProt A0A5C2GD86)
T1 construct: mature peptide (278 residues of 297, signal peptide removed), extra N-terminal residues, C-terminal 6xHis kept; secreted from Pichia pastoris GS115 (pPIC9K, codon-optimised), Ni-NTA purified, Endo Hf deglycosylated
T1 sequence (A0A5C2GD86 20-297): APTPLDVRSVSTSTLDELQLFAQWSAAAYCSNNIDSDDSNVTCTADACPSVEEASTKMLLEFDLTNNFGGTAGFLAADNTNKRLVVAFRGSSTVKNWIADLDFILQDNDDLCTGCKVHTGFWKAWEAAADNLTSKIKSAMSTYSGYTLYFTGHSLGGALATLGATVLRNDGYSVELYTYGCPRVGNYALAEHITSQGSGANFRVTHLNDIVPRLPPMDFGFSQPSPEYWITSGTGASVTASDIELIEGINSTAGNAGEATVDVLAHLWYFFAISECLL
Experiment: ultrasound-assisted solvent-free esterification, HPLC of glycerides
Assay type: biochemical
Conditions: 40 °C, ultrasound 200 W, 40 kHz

| SMILES | ultrasound-assisted solvent-free esterification, HPLC of glycerides (co-substrate glycerol (glycerol to oleic acid 5:1 molar)) | ultrasound-assisted solvent-free esterification, HPLC of glycerides (co-substrate oleic acid (glycerol to oleic acid 5:1 molar)) |
| --- | --- | --- |
| CCCCCCCC/C=C\CCCCCCCC(=O)O [oleic acid] | Ultrasound-assisted esterification of oleic acid (OA) with glycerol was studied |  |
| OCC(O)CO [glycerol] |  | Ultrasound-assisted esterification of oleic acid (OA) with glycerol was studied |
